Patent publication US9072901B2, “Cardiac neuromodulation and methods of using same” (The Board of Regents of the University of Oklahoma, priority 2001, dated 2015)
No end group written: not given here.

Tests used:
[1] = system: right atrial ganglionated plexus neurons; assay: Activity of right atrial ganglionated plexus neuron populations during epicardial chemical stimuli; type: in vivo; settings: ventricular sensory inputs
Excerpt: Arrow indicates application of veratridine to the epicardium of the left ventricle. At baseline, note the cycling of activity with a periodicity of 20 seconds. In the unstressed condition, this bursting is usually associated with increased coordination of activity between the two populations of neurons (see bottom trace).
Sub-populations of right atrial neurons that receive afferent inputs from sensory neurites in both ventricles are responsive to local mechanical stimuli and the nitric oxide donor nitroprusside. Neurons in at least one ganglionated plexus locus were activated by epicardial application of veratridine, bradykinin, the β1-adrenoceptor agonist prenaterol or the excitatory amino acid glutamate. […] These periods of coupled activity occurred every 30-50 second during basal states, as well as when neuronal activity was enhanced by chemical activation of their ventricular sensory inputs. It has been observed that neurons throughout one intrinsic cardiac ganglionated plexus receive inputs from mechano- and chemo-sensory neurites located in both ventricles. That such neurons respond to multiple chemical stimuli, including those liberated from adjacent adrenergic efferent nerve terminals, indicates the complexity of the integrative processing of information that occurs within the intrinsic cardiac nervous system.
Intraganglionic interactions within the intrinsic cardiac nervous system depend in large part on common shared afferent inputs and/or interconnections mediated via local circuit neurons. In order to evaluate these interactions, separate populations of neurons were recorded in the ventral right atrial ganglionated plexus (RAGP) in basal states and during discrete mechanical and chemical stimuli of ventricular neurites. In basal states, the coherence of activity generated by the two populations of RAGP neurons fluctuated with a periodicity of 30-50 s and with an average peak coherence of 0.88±0.03. Coherence was increased in conjunction with the enhanced neuronal activity evoked during exposure of ventricular sensory inputs to mechanical and chemical (nitroprusside, veratridine, bradykinin, adrenergic agonists or glutamate) stimuli.

[2] = system: intrinsic cardiac neurons; assay: Activity generated by right atrial (intrinsic cardiac) neurons recorded in situ in anesthetized dogs; type: in vivo, dog; settings: for enhancement of intrinsic cardiac neuronal activity: epicardial veratridine 7.5 μM
[3] = system: T3 neurons; assay: T3 neuron activity with intrapericardial bradykinin and glutamate pledget on C1-C2 segments; type: in vivo, rats
Excerpt: FIGS. 19A-19F show responses of T3 cell to chemical stimulation of glutamate before and after rostral C1 spinal transection. The responses were evoked by intrapericardial injections of bradykinin (BK). Saline was used as the control. Pledgets of glutamate placed on the C1-C2 dorsal spinal cord (B) decreased the discharge rate of the cell for the three minute period it was applied. The background activity recovered after glutamate was removed. […] The presence of glutamate attenuated this response (E). The increased rate of discharge to BK injections was again observed when glutamate was removed (F). In each panel, action potentials were recorded on a rate histogram.
Originally, it was assumed that supraspinal pathways are necessary for descending inhibitory effects of visceral afferents on sensory neurons. […] Thus, it appears that the upper cervical segments play an important role in the hierarchy that controls the efferent outflow to the intrathoracic and intrinsic cardiac nervous system. […]
Descending modulation of thoracic cardiac nociceptive transmission by upper cervical spinal neurons. […] Methods: Extracellular potentials of single T3 neurons were recorded in pentobarbital anesthetized male rats. […]

[4] = system: right atrial neurons; assay: Ventricular unipolar electrograms (ST segment) with ANG II administered to right atrial neurons, ameroid constrictor chronic ischemia; type: in vivo; settings: ANG II 40 μg/min
Method: Under basal conditions, electrograms display slight ST segment displacement (panel B). Transient rapid ventricular pacing (240/min for 1 min), used to increase myocardial O2 demand, precipitates ischemic episodes. In the first beats following rapid pacing, ST segment displacement is inhomogeneously augmented in the LCx territory. Marked ST segment depression (−2 to −6 mV) occurs in some areas, whereas ST elevation (+2 to +15 mV) develops in others (panel C). […] Note that the ST changes, induced by ANG II, occurred at the apical margin of the plaque electrode, i.e., at the periphery of the LCx territory (Panel D). In contrast, the changes induced by transient rapid pacing occurred at a more central location in the LCx territory (panel C).
Note that the ST changes occurred at the apical margin of the plaque electrode (panel B). Thus, the ST segment changes are caused by direct or indirect activation of ganglionated plexus neurons that project efferent axons to the specific ventricular areas in which the changes occurred. […]
Dorsal column activation stabilizes ischemic myocardial electrical dysfunction. […] Four weeks later, under general anesthesia multiple ventricular unipolar electrograms were recorded in the normal and ischemic left ventricle during basal states and when ANG II (40 μg/min; 1 minute) was administered to right atrial neurons before and after DCA. […]

[5] = system: right atrial ganglionated plexus; assay: ISF, aorta and coronary sinus catecholamines (microdialysis) during ANG II infusion into blood supply of the RAGP; type: in vivo, dog
Method: FIGS. 8A-8C show ISF, aorta and coronary sinus norepinephrine (NE) and epinephrine (EPI) levels in response to stellate stimulation (4 Hz), angiotensin II (ANG II) infusion (100 μM, 1 ml/min) into the blood supply for the Right Atrial Ganglionated Plexus (RAGP) and Dorsal Cord Activation (DCA, 50 Hz, 200 μsec, 90% motor threshold). ISF fluids were sampled using the microdialysis techniques summarized in Aim 3.
LV dP/dt correlated with ISF NE release. However, NE spillover into the coronary sinus occurred only during sympathetic efferent neuronal stimulation (FIG. 8C). […] This differential release of catecholamines from cardiac nerves occurred in spite of a 40-fold higher NE compared to EPI content in the dog LV myocardium (237±33 vs. 6.4±1.0 ng/g). […] Dorsal cord activation (FIG. 8B) evoked a release of EPI into the ISF equivalent to stellate stimulation, but with only a modest increase in ISF NE.

[6] = system: canine nodose ganglion afferent neuron; assay: Nodose ganglion afferent neuron activity after epicardial CPA; type: in vivo; settings: CPA via 1 cm×1 cm pledget on ventral left ventricular epicardium
Method: Panel B was obtained 1 minute after terminating CPA application.

[7] = system: intracardiac neuron; assay: Inhibition of ACh-evoked responses by substance P, intracellular recording; type: cell-based; settings: bath application of 10 μM substance P; 28 ms puffs of ACh 10 mM
Method: Local application of ACh evoked action potentials. These ACh evoked potentials were blocked during bath application of 10 μM substance P (see horizontal bar).

[8] = system: intrinsic cardiac neurons; settings: direct application; cited from earlier work
[9] = system: canine intrinsic cardiac neurons; assay: Intracellular recording of canine intrinsic cardiac neurons in vitro, ACh pulse with or without hexamethonium; type: cell-based; settings: hexamethonium 100 μM for 5 min in perfusate
Method: The horizontal bar under the traces indicates application of a 10 ms pulse of ACh (1 mM) from the tip of a pipette placed near the ganglion. A, CONTROL. […] DCX. […] During the repolarization phase, the membrane potential began to oscillate with APs being discharged on oscillatory peaks. […] DCX. […] The bursting of activity is reflective of the enhanced muscarinic receptor-mediated responses of these neurons.
Intrinsic cardiac neurons remain responsive to cholinergic synaptic inputs. The cholinergic receptor systems are differentially affected by disruption of nerve inputs to the ICN, with muscarinic responsiveness being enhanced (FIG. 9). Non-cholinergic neurotransmitters can modulate the activity of these neurons. FIG. 10 illustrates the interaction between acetylcholine and the peptide, substance P.

With `CC(C)(C)NCC(O)c1cc(O)cc(O)c1` (centres unmarked) [terbutaline] the “neuronal response to epicardial application” value (“neuronal response” below) [1] was “inconsistent neuronal responses”.
With `CC(C)NC[C@H](O)COc1ccc(O)cc1` [prenaterol] the “neuronal response” value [1] was “activated”.
With nitroprusside the “neuronal response” value [1] was “responsive”.
With `OC[C@@H](O)[C@H]1O[C@@H]2O[C@H](C(Cl)(Cl)Cl)O[C@@H]2[C@H]1O` [alpha chloralose] the “effect of each bolus on neuronal activity” value ([2]; dog, in vivo, iv) was “suppressed neuronal activity for a few minutes”.
For `N[C@@H](CCC(=O)O)C(=O)O` [glutamate], the “spontaneous activity of T3 neurons and excitatory inputs from cardiac sensory neurons” value ([3]; after transection at the rostral C1 spinal cord) was “still reduced”, the “T3 neurons in which spontaneous activity and/or excitatory responses to intrapericardial bradykinin were inhibited” value ([3]; glutamate pledget 1 M, 1-3 min, on C1-C2) was 77% and the “neuronal response” value [1] was “activated”.
In the case of “angiotensin II (DRVYIHPF; Angiotensin-2; UniProt P01019 25-32, looked up) [ANG II]”, the “regional ST segment changes” value ([4]; ischemic ventricle, 1 minute) is reported as “increased the area and magnitude”, the electrical behavior ([4]; normal myocardium) is reported as “minimal changes” and the “neuronal response” value [1] is reported as “inconsistent neuronal responses”. For the same compound, the “NE concentration in the cardiac interstitial fluid (ISF)” value ([5]; ANG II 100 μM, 1 ml/min into RAGP blood supply, anesthetized dog) was “to the same extent as achieved during electrical stimulation of the stellate ganglia” and the “EPI spillover into the coronary sinus” value ([5]; ANG II stimulation) was “Neither stellate nor ANG II stimulation evoked EPI spillover”.
In the case of `COc1ccc(C(=O)O[C@H]2CC[C@@]3(C)[C@@H]4CC[C@H]5[C@]6(O)C[C@H](O)[C@@]7(O)[C@@H](CN8C[C@@H](C)CC[C@H]8[C@@]7(C)O)[C@]6(O)C[C@@]53O[C@]24O)cc1OC` [veratridine], the “intrinsic cardiac neuronal activity with veratridine” value ([2]; after application of SCS, four animals, from 11.8±2.5) is reported as 16.5±4.6 impulses/min, the “intrinsic cardiac neuronal activity with veratridine” value ([2]; after completing the protocols, all 10 dogs, from 25.6±5.7) is reported as 40.6±12.5 impulses/min and the “intrinsic cardiac neuronal activity with veratridine” value ([2]; before application of SCS, four animals) is reported as 40.5±26.7. The “enhancement of intrinsic cardiac neuronal activity” value ([2]; after application of SCS, four animals, no significant difference) was 39%, the “enhancement of intrinsic cardiac neuronal activity” value ([2]; before application of SCS, four animals, P<0.05) was 124% and the “increase of intrinsic cardiac neuronal activity” value ([2]; epicardial veratridine, after completing the protocols (following SCS and regional ventricular ischaemia), all 10 dogs, P<0.05) was 58%.
For `OC[C@H]1O[C@@H](n2cnc3c(NC4CCCC4)ncnc32)[C@H](O)[C@@H]1O` [CPA], the “activity generated by nodose ganglion afferent neuron” value [6] was “enhancement of the activity”.
With “substance P (RPKPQQFFGLM-NH2; ends and bridges not checked; UniProt P20366 58-68, looked up)” the ACh evoked potentials [7] was “blocked”.
In the case of `NC[C@H](O)c1ccc(O)c(O)c1` [norepinephrine], the “identified intrinsic cardiac neurons whose properties are modified” value [8] is given as “about 25%”.
For `C[N+](C)(C)CCCCCC[N+](C)(C)C` [Hexamethonium], the ACh-induced depolarization ([9]; CONTROL neuron) was “reduced the amplitude of ACh-induced depolarization relative to the control state; no APs were generated” and the ACh-induced depolarization ([9]; DCX neuron) was “reduced the amplitude of ACh-induced depolarization; AP discharge was facilitated”.
